Laboratory results published in ChEMBL document CHEMBL5385906, “Discovery of a Potent, Selective, and Orally Bioavailable Tool Compound for Probing the Role of Lysophosphatidic Acid Type 2 Receptor Antagonists in Fibrotic Disorders” (J Med Chem, 2023).

Legend:
[1] = molecular target: T1, Lysophosphatidic acid receptor 2 (Mus musculus, UniProt Q9JL06); assay: Antagonist activity at mouse LPA2 receptor expressed in HeLa cells assessed as inhibition of LPA-induced calcium mobilization pretreated for 15 mins followed by LPA stimulation by FLIPR analysis; assay type: functional, cell-based
T1 sequence (Q9JL06 whole entry): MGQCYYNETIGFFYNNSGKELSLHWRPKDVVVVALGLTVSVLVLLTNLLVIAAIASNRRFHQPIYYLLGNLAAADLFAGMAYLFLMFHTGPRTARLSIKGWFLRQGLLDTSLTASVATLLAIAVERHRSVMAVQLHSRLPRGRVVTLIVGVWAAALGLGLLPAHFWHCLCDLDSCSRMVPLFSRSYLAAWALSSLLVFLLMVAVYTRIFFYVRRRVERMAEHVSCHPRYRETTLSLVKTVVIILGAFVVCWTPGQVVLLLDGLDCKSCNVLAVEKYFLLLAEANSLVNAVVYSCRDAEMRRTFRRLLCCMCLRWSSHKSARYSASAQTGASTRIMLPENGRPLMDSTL

[2] = Efflux ratio of apparent permeability across apical to basolateral to basolateral to apical side in human Caco-2 cells at 10 uM measured after 60 mins by LC-MS/MS analysis
[3] = Protein binding in human plasma assessed as fraction unbound at 0.5 uM measured after 5 hrs by LC-MS/MS analysis
[4] = Protein binding in mouse plasma assessed as fraction unbound at 0.5 uM measured after 5 hrs by LC-MS/MS analysis
[5] = Protein binding in mouse lungs assessed as fraction unbound at 5 uM measured after 5 hrs by LC-MS/MS analysis
[6] = Half life in C57BL/6J mouse at 5 mg/kg, po or 4 mg/kg, iv by UPLC-MS/MS analysis; conditions: in vivo
[7] = Apparent permeability across apical to basolateral side in human Caco-2 cells at 10 uM measured after 60 mins by LC-MS/MS analysis
[8] = Apparent permeability across basolateral to apical side in human Caco-2 cells at 10 uM measured after 60 mins by LC-MS/MS analysis
[9] = molecular target: Lysophosphatidic acid receptor 2 (Homo sapiens, UniProt Q9HBW0)
Sequence of Lysophosphatidic acid receptor 2 (Homo sapiens, UniProt Q9HBW0) (Q9HBW0 whole entry): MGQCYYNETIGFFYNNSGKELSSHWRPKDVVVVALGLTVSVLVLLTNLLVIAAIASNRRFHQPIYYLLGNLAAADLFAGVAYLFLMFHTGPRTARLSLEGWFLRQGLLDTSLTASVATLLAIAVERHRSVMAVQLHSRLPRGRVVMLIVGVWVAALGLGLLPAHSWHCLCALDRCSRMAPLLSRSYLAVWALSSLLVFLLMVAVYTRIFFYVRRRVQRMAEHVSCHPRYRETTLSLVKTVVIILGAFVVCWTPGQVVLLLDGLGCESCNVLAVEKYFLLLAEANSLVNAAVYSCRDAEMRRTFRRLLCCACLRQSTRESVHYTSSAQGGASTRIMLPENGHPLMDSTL
Description: Antagonist activity at human LPA2 receptor expressed in CHO cells assessed as inhibition of LPA-induced calcium mobilization pretreated for 15 mins followed by LPA stimulation by FLIPR analysis

[10] = molecular target: T1, Lysophosphatidic acid receptor 2
Description: Antagonist activity at LPA2 receptor expressed in C57BL/6 mouse primary alveolar epithelial cells assessed as inhibition of LPA-induced calcium mobilization pretreated for 15 mins followed by LPA stimulation by FLIPR analysis

[11] = molecular target: Lysophosphatidic acid receptor 1 (Homo sapiens, UniProt Q92633)
Sequence of Lysophosphatidic acid receptor 1 (Q92633 whole entry): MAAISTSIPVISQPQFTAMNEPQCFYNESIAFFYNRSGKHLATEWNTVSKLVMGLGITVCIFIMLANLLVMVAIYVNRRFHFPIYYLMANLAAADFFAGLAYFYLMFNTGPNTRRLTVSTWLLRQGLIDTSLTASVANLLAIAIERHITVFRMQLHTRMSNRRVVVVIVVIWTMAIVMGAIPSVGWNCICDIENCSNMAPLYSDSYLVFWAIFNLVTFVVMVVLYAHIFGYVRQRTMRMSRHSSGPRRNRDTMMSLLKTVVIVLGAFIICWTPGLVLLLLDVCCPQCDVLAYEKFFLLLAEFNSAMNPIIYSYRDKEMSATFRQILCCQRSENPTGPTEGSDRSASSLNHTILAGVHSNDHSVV
Description: Antagonist activity at human LPA1 receptor expressed in CHO cells assessed as inhibition of LPA-induced calcium mobilization pretreated for 15 mins followed by LPA stimulation by FLIPR analysis

[12] = molecular target: T2, Lysophosphatidic acid receptor 3 (Homo sapiens, UniProt Q9UBY5)
T2 sequence (Q9UBY5 whole entry): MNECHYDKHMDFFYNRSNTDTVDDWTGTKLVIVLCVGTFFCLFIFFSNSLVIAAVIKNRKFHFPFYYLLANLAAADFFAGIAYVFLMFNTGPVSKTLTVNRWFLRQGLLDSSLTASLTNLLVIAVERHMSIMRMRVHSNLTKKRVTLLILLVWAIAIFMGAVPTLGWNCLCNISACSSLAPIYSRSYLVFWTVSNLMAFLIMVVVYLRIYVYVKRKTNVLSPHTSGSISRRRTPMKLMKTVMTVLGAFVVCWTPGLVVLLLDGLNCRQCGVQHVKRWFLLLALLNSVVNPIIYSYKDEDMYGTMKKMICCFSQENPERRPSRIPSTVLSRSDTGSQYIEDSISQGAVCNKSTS
Description: Antagonist activity at human LPA3 receptor expressed in HeLa cells assessed as inhibition of LPA-induced calcium mobilization pretreated for 15 mins followed by LPA stimulation by FLIPR analysis

[13] = molecular target: Lysophosphatidic acid receptor 4 (Homo sapiens, UniProt Q99677)
Sequence of Lysophosphatidic acid receptor 4 (Q99677 whole entry): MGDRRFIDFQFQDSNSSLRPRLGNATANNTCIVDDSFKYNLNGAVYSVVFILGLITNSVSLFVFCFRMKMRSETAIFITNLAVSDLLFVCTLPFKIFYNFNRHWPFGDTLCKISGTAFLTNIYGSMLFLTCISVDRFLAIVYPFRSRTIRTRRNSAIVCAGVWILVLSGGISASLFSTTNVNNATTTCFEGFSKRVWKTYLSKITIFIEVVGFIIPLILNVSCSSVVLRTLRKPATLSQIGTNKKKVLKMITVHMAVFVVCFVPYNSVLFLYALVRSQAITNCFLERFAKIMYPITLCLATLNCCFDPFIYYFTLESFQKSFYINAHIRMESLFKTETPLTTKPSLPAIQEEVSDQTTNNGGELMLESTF

[14] = molecular target: Lysophosphatidic acid receptor 5 (Homo sapiens, UniProt Q9H1C0)
Sequence of Lysophosphatidic acid receptor 5 (Q9H1C0 whole entry): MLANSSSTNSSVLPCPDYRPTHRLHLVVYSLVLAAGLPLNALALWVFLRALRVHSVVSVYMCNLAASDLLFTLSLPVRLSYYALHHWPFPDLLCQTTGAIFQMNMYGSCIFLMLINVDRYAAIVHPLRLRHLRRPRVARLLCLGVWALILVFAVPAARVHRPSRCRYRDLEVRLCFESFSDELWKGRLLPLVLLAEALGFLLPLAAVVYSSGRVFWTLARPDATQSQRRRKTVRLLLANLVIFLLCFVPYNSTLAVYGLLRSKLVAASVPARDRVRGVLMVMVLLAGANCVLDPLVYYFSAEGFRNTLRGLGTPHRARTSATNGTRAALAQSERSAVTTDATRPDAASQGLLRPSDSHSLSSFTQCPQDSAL
Description: Antagonist activity at human LPA5 receptor expressed in HeLa cells assessed as inhibition of LPA-induced calcium mobilization pretreated for 15 mins followed by LPA stimulation by FLIPR analysis

[15] = in vivo; conditions: C57BL/6J, mouse, po, 5 mg/kg
Description: Oral bioavailability in C57BL/6J mouse at 5 mg/kg by UPLC-MS/MS analysis

[16] = in vitro; conditions: human, liver microsomes, CLH
Description: Intrinsic clearance in human liver microsomes at 0.5 uM in presence of NADPH regenerating system measured for 45 mins per mg protein by LC-MS/MS analysis

[17] = in vitro; conditions: C57BL/6J, mouse, liver microsomes
Description: Intrinsic clearance in C57BL/6J mouse liver microsomes at 0.5 uM in presence of NADPH regenerating system measured for 45 mins per mg protein by LC-MS/MS analysis

[18] = in vivo; conditions: C57BL/6J, mouse, po, 26.5 mg/kg
Description: Half life in C57BL/6J mouse at 26.5 mg/kg, po and 2 mg/kg, iv by LC-MS/MS analysis

[19] = in vivo; conditions: C57BL/6J, mouse, po, 26.5 mg/kg; remark: listed apart in the source
Description: Oral absorption in C57BL/6J mouse at 26.5 mg/kg by LC-MS/MS analysis

[20] = in vivo; conditions: C57BL/6J, mouse, po, 26.5 mg/kg; remark: listed apart in the source
Description: Oral bioavailability in C57BL/6J mouse at 26.5 mg/kg by LC-MS/MS analysis

[21] = in vivo; conditions: C57BL/6J, mouse, plasma, po, 26.5 mg/kg
Description: Total Cmax in C57BL/6J mouse plasma at 26.5 mg/kg, po and 2 mg/kg, iv by LC-MS/MS analysis

[22] = in vivo; conditions: C57BL/6J, mouse, plasma, po, 26.5 mg/kg; remark: listed apart in the source
Description: Total AUC last in C57BL/6J mouse plasma at 26.5 mg/kg, po and 2 mg/kg, iv by LC-MS/MS analysis

[23] = in vivo; conditions: C57BL/6J, mouse, lung, po, 26.5 mg/kg
Description: Total Cmax in C57BL/6J mouse lungs at 26.5 mg/kg, po and 2 mg/kg, iv by LC-MS/MS analysis

[24] = in vivo; conditions: C57BL/6J, mouse, lung, po, 26.5 mg/kg; remark: listed apart in the source
Description: Total AUC last in C57BL/6J mouse lungs at 26.5 mg/kg, po and 2 mg/kg, iv by LC-MS/MS analysis

[25] = Clearance in C57BL/6J mouse at 1.4 mg/kg, iv by UPLC-MS/MS analysis; conditions: in vivo
[26] = in vivo; conditions: C57BL/6J, mouse, po, 24.3 mg/kg
Description: Half life in C57BL/6J mouse at 24.3 mg/kg, po and 1.4 mg/kg, iv by UPLC-MS/MS analysis

[27] = in vivo; conditions: C57BL/6J, mouse, po, 24.3 mg/kg; remark: listed apart in the source
Description: Oral absorption in C57BL/6J mouse at 24.3 mg/kg by UPLC-MS/MS analysis

[28] = in vivo; conditions: C57BL/6J, mouse, po, 24.3 mg/kg; remark: listed apart in the source
Description: Oral bioavailability in C57BL/6J mouse at 24.3 mg/kg by UPLC-MS/MS analysis

[29] = in vivo; conditions: C57BL/6J, mouse, plasma, po, 24.3 mg/kg
Description: Total Cmax in C57BL/6J mouse plasma at 24.3 mg/kg, po and 1.4 mg/kg, iv by UPLC-MS/MS analysis

[30] = in vivo; conditions: C57BL/6J, mouse, plasma, po, 24.3 mg/kg; remark: listed apart in the source
Description: Total AUClast in C57BL/6J mouse plasma at 24.3 mg/kg, po and 1.4 mg/kg, iv by UPLC-MS/MS analysis

[31] = in vivo; conditions: C57BL/6J, mouse, lungs, po, 24.3 mg/kg
Description: Total Cmax in C57BL/6J mouse lungs at 24.3 mg/kg, po and 1.4 mg/kg, iv by UPLC-MS/MS analysis

[32] = in vivo; conditions: C57BL/6J, mouse, lungs, po, 24.3 mg/kg; remark: listed apart in the source
Description: Total AUClast in C57BL/6J mouse lungs at 24.3 mg/kg, po and 1.4 mg/kg, iv by UPLC-MS/MS analysis

[33] = in vivo; conditions: C57BL/6J, mouse, lung and plasma, po, 24.3 mg/kg
Description: Ratio of total AUC in lung to plasma in C57BL/6J mouse at 24.3 mg/kg, po and 1.4 mg/kg, iv by UPLC-MS/MS analysis

[34] = in vivo; conditions: C57BL/6J, mouse, po, 24.8 mg/kg
Description: Half life in C57BL/6J mouse at 24.8 mg/kg, po and 1.8 mg/kg, iv by LC-MS/MS analysis

[35] = in vivo; conditions: C57BL/6J, mouse, po, 24.8 mg/kg; remark: listed apart in the source
Description: Oral absorption in C57BL/6J mouse at 24.8 mg/kg by LC-MS/MS analysis

[36] = in vivo; conditions: C57BL/6J, mouse, po, 24.8 mg/kg; remark: listed apart in the source
Description: Oral availability in C57BL/6J mouse at 24.8 mg/kg by LC-MS/MS analysis

[37] = in vivo; conditions: C57BL/6J, mouse, po, 24.8 mg/kg; remark: listed apart in the source
Description: Total Cmax in C57BL/6J mouse plasma at 24.8 mg/kg, po and 1.8 mg/kg, iv by LC-MS/MS analysis

[38] = in vivo; conditions: C57BL/6J, mouse, po, 24.8 mg/kg; remark: listed apart in the source
Description: Total AUC last in C57BL/6J mouse plasma at 24.8 mg/kg, po and 1.8 mg/kg, iv by LC-MS/MS analysis

[39] = in vivo; conditions: C57BL/6J, mouse, po, 24.8 mg/kg; remark: listed apart in the source
Description: Total Cmax in C57BL/6J mouse lungs at 24.8 mg/kg, po and 1.8 mg/kg, iv by LC-MS/MS analysis

[40] = in vivo; conditions: C57BL/6J, mouse, po, 24.8 mg/kg; remark: listed apart in the source
Description: Total AUC last in C57BL/6J mouse lungs at 24.8 mg/kg, po and 1.8 mg/kg, iv by LC-MS/MS analysis

Structure (SMILES) | IC50 ([1]; read-out: pIC50 (converted)) [nM] | efflux ratio at 1 h, 10 µM [2] | fraction unbound at 5 h, 0.5 µM [3] | fraction unbound at 5 h, 0.5 µM [4] | fraction unbound at 5 h, 5 µM [5] | Papp A→B at 1 h, 10 µM [7] [×10⁻⁶ cm/s] | Papp B→A at 1 h, 10 µM [8] [×10⁻⁶ cm/s] | IC50 [9] [nM] | IC50 [11] [nM] | IC50 [12] [nM] | IC50 [13] [nM] | microsomal CLint at 0.75 h, 0.5 µM [16] [µL/min/mg] | microsomal CLint at 0.75 h, 0.5 µM [17] [µL/min/mg] | other results
Cc1csc2c(N[C@@H](C)CN3CCN(S(=O)(=O)c4ccc(Cl)c(Cl)c4)CC3)ncnc12 | 295 | 1 | 0.004 | 0.0065 | 0.001 | 0.89 | 0.91 | 676 | 9770 | 38900 | 6310 | 758 | > 759 | half-life [6]: 1 h; IC50 [10]: 324 nM; IC50 [14]: > 50100 nM; bioavailability [15]: 0.23%
COC(=O)Nc1nc(C)c(S(=O)(=O)N2CCN(C[C@H](C)Nc3ncnc4c(-c5ccc(C)nc5)cccc34)CC2)s1 | 4.17 | 5.7 | < 0.01 | 0.0011 | 0.0175 |  |  | 2.45 | > 50100 |  |  | 34 | 49 | half-life [18]: 1.67 h; Fa [19]: 97%; bioavailability [20]: 87%; Cmax [21]: 71500 ng/mL; AUC(0-t) [22]: 280 µg·h/mL; Cmax [23]: 15400 ng/mL; AUC(0-t) [24]: 50.5 µg·h/mL
COC(=O)Nc1nc(C)c(S(=O)(=O)N2CCN(C[C@H](C)Nc3ncnc4c(C)csc34)CC2)s1 |  | 1.7 | < 0.01 | 0.0023 | 0.0385 | 8.12 | 13.5 | 479 | > 50100 | > 50100 | 24000 | 80 | 156 | IC50 ([1]; read-out: IC50): 7080 nM; clearance [25]: 0.82 mL/min/kg; half-life [26]: 2.17 h; Fa [27]: 91%; bioavailability [28]: 85%; Cmax [29]: 91300 ng/mL; AUC(0-t) [30]: 435 µg·h/mL; Cmax [31]: 25300 ng/mL; AUC(0-t) [32]: 119 µg·h/mL; Kp [33]: 0.27
COC(=O)Nc1nc(C)c(S(=O)(=O)N2CCN(C[C@H](C)Nc3ncnc4c(-c5cn(C)nc5C(F)(F)F)cccc34)CC2)s1 | 2.04 | 2.9 | < 0.01 | 0.0015 | 0.0122 | 2.23 | 6.41 | 0.347 | > 50100 |  |  | 52 | 125 | half-life [34]: 1.69 h; Fa [35]: 100%; bioavailability [36]: 89%; Cmax [37]: 70100 ng/mL; AUC(0-t) [38]: 418 µg·h/mL; Cmax [39]: 19000 ng/mL; AUC(0-t) [40]: 78 µg·h/mL
